# Source: publication PMC10831120, “Nitric oxide synthase-guided genome mining identifies a cytochrome P450 enzyme for olefin nitration in bacterial specialized metabolism” (Synthetic and Systems Biotechnology, 2024)
# pKd: −log10 of the molar value.
# Biological target: T1, Laj2 (cytochrome P450)
# T1 construct: His6-tagged Laj2 (405 aa), expressed in E. coli
# Assay: UV-vis difference spectral titration (type I binding spectra), one-site fit; nitration turnover also shown by LC-MS
# Parameters: species or system Streptomyces qinglanensis
smiles,measurement,value
"C/C=C(C)/C=C/C=C\C=C(\C)C(O)C(C)(C)C(=O)NC/C=C/C=C/C(O)C(C)CC(OC)C1(O)C(C)C(=O)N(C)C12COC2=O (stereo not shown) [compound 4, denitrolajollamycin]",pKd,~4.22
